{"source": "patent US5610174A", "about": "“Use of α1A -selective adrenoceptor agonists for the treatment of urinary incontinence” (priority 1995, dated 1997)", "key": {"[1]": {"target": "T1, female dog urethra (α1-adrenoceptor) (Canis lupus, UniProt A0A8I3NK63)", "T1 sequence (A0A8I3NK63 1-466)": "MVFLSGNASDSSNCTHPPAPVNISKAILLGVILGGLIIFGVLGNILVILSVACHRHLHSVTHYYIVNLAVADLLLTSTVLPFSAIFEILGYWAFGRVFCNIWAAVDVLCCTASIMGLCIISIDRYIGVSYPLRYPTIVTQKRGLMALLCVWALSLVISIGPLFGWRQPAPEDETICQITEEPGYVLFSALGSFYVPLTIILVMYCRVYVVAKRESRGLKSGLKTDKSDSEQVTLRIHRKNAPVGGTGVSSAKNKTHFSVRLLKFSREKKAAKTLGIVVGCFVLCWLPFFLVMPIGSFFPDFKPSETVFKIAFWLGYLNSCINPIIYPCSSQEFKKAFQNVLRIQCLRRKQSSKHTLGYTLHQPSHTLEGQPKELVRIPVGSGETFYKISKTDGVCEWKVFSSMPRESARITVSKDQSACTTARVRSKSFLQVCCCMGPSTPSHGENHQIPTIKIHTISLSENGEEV", "test": "Contractile study in isolated female dog urethra", "conditions": "for pEC50 Urethra: agonist contraction", "from_the_text": "(§1) In addition, similar studies were done using bladder neck tissue from female dogs. In order to identify the specific receptor subtype in each tissue, the pharmacological profile was compared to the profiles for these same drugs at the cloned human α1A, α1B, or α1C subtypes.\n(§2) Tissue samples from the proximal urethra of male humans and male and female rabbits, as well as tissue samples from both the proximal urethra and bladder neck of male and female dogs were cut into transverse strips (3×10 mm) and suspended under 0.5 g tension in Krebs' physiological buffer at 37° C. To determine agonist potency (pEC50 )and antagonist affinity constants (pKB), concentration-effect curves to the non-selective agonist phenylepherine were constructed in the absence and in the presence of increasing concentrations of the antagonist. Up to four sequential curves were constructed in each tissue. Antagonists were allowed to equilibrate for 1h before each concentration-effect curve, and the drugs were completely washed out in between successive curves. In each experiment, one tissue served as a \"time control\", in which no antagonist was added so that changes in tissue sensitivity could be assessed as a function of time. […] In instances in which a single concentration of antagonist was used, pKB values were determined by the equation: […], where CR is defined as the ratio of the agonist EC50 in the presence of the antagonist to that in the absence of the antagonist."}, "human 5-HT1A receptor": {"target": "T2, human 5-HT1A receptor (Homo sapiens, UniProt P08908)", "T2 construct": "expressed in transfected cells; host or cells: COS-7, transient (a cell line 5-HT1A-3, ATCC CRL 11889, is also named)", "T2 sequence (P08908 1-422)": "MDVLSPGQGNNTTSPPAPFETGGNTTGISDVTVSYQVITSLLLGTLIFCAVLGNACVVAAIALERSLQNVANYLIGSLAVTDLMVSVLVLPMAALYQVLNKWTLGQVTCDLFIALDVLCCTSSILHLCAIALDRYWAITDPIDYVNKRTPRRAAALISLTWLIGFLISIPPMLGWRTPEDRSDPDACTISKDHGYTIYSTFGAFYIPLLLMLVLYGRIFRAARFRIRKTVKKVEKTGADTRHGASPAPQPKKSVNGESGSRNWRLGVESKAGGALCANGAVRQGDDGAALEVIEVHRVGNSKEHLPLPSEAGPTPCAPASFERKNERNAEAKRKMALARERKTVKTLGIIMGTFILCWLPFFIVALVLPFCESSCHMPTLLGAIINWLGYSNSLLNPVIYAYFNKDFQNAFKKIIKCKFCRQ", "test": "Radioligand binding at human 5-HT1A", "method": "The cDNA corresponding to the 5-HT1A receptor open reading frames and variable non-coding 5'- and 3'-regions, was cloned into the eukaryotic expression vector pCEXV-3. These constructs were transfected transiently into COS-7 cells by the DEAE-dextran method, and harvested after 72 hours. Radioligand binding assays were performed as described above for the 5-HT2 receptor, except that [3H]-8-OH-DPAT was used as the radioligand and nonspecific binding was determined by the addition of 10 μM mianserin."}, "human 5-HT2 receptor": {"target": "T3, human 5-HT2 receptor (Homo sapiens, UniProt P28223)", "T3 construct": "expressed in transfected cells; host or cells: COS-7 cells (text also names deposited cell line L-NGC-5-HT2, ATCC CRL 10287)", "T3 sequence (P28223 whole entry)": "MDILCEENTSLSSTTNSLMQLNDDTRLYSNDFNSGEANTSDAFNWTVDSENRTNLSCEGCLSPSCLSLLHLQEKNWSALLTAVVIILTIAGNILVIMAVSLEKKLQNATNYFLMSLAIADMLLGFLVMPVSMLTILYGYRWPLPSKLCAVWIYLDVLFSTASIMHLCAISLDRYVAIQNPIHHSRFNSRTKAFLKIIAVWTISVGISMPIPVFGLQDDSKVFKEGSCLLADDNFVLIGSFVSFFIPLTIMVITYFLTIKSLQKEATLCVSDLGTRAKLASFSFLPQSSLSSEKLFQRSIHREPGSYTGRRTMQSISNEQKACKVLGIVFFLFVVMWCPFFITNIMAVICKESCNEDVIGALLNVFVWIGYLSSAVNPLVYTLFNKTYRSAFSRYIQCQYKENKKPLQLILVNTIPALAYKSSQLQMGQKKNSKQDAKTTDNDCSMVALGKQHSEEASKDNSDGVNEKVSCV", "test": "Radioligand binding at human 5-HT2", "conditions": "[3H]ketanserin; read-out: pKi 5-HT2 (converted)", "method": "The coding sequence of the human 5-HT2 receptor was obtained from a human brain cortex cDNA library, and cloned into the cloning site of pCEXV-3 eukaryotic expression vector. This construct was transfected into COS-7 cells by the DEAE-dextran method. Cells were harvested after 72 hours and lysed by sonication in 5 mM Tris-HCl, 5 mM EDTA, pH 7.5. This cell line was deposited with the ATCC on Oct. […] The cell lysates were centrifuged at 1000 rpm for 5 minutes at 4° C., and the supernatant was centrifuged at 30,000×g for 20 minutes at 4° C. The pellet was suspended in 50 mM Tris-HCl buffer (pH 7.7 at room temperature) containing 10 mM MgSO4, 0.5 mM EDTA, and 0.1% ascorbate. […] Nonspecific binding was defined by the addition of 10 μM mianserin. The bound radioligand was separated by filtration through GF/B filters using a cell harvester."}, "[2]": {"target": "T4, rabbit urethra, male (α1-adrenoceptor) (Oryctolagus cuniculus, UniProt O02824)", "T4 sequence (O02824 1-466)": "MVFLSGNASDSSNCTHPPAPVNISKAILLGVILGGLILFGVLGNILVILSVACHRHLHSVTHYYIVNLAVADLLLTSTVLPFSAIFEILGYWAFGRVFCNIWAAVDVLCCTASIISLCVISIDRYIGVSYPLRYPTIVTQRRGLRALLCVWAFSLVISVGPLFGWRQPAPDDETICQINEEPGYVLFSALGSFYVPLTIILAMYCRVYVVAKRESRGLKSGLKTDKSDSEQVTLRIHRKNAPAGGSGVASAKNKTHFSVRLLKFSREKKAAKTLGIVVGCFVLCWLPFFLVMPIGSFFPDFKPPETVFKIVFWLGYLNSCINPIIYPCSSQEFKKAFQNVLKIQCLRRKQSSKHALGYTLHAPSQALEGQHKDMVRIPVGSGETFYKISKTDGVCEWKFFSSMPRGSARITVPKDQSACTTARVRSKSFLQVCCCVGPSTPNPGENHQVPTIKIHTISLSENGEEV", "test": "Contractile study in isolated male rabbit urethra", "conditions": "versus phenylephrine-induced contraction", "from_the_text": "as §1, §2"}}, "note": "Like-named read-outs stand apart in the source and are kept apart here.", "data": [{"smiles": "CS(=O)(=O)Nc1c(O)ccc2c1CCCC2C1=NCCN1", "note": "(racemic) [Compound A-61603, (±)-N-[5-(4,5-Dihydro-1H-imidazol-2-yl)-2-hydroxy-5,6,7,8-tetra-hydronaphthalen-1-yl]methanesulfonamide]", "values": [{"measurement": "sensitivity of the contraction to prazosin, urethra", "setting": "[1]", "value": "highly sensitive to prazosin"}, {"measurement": "pEC50 Urethra", "setting": "[1]", "value": 6.7}, {"measurement": "Ki", "setting": "human 5-HT1A receptor; [3H]-8-OH-DPAT, read-out: pKi 5-HT1A (converted)", "value": 3.98, "unit": "µM"}, {"measurement": "Ki", "setting": "human 5-HT2 receptor", "value": 50.1, "unit": "µM"}]}, {"smiles": "COc1ccccc1N1CCN(CCCNc2c(C)c(=O)n(C)c(=O)n2C)CC1", "note": "[Compound 5-MU]", "values": [{"measurement": "pKB Rabbit Urethra Male", "setting": "[2]", "value": 7.8}]}, {"smiles": "COc1cc2c(cc1OC)CN(c1cc(N)c3cc(OC)c(OC)cc3n1)CC2", "note": "[Abanoquil, 2-(6,7-Dimethoxy-3,4-dihydro-1H-isoquinolin-2-yl)-6,7-dimethoxyquinolin-4-ylamine hemifumarate hydrate]", "values": [{"measurement": "pKB Rabbit Urethra Male", "setting": "[2]", "value": 8.7}]}, {"smiles": "COc1ccc(SC)c2c1C[C@@H]1[C@@H](C2)OCCN1C", "note": "(relative stereo) [SDZ NVI-085, (±)-trans-4-Methyl-6-methoxy-9-thiomethoxy-3,4,4a, 5,10,10a-hexahydro-2H-naphtho[2,3-b][1,4]oxazine]", "values": [{"measurement": "Ki", "setting": "human 5-HT1A receptor", "value": 0.0794, "unit": "µM"}, {"measurement": "Ki", "setting": "human 5-HT2 receptor", "value": 0.316, "unit": "µM"}]}, {"smiles": "CNCCc1ccc(O)c(NS(C)(=O)=O)c1", "note": "[SK&F 102652]", "values": [{"measurement": "sensitivity of the contraction to prazosin, urethra", "setting": "[1]", "value": "highly sensitive to prazosin"}, {"measurement": "pEC50 Urethra", "setting": "[1]", "value": 6.0}, {"measurement": "pKi 5-HT1A", "setting": "human 5-HT1A receptor; [3H]-8-OH-DPAT", "value": 5.8}]}]}
